Reference: ChEMBL document CHEMBL3421631, “Structure-activity relationship and properties optimization of a series of quinazoline-2,4-diones as inhibitors of the canonical Wnt pathway” (Eur J Med Chem, 2015)
One block for each compound: values may come before it.

Legend:
[1] = Permeability of the compound at 10 uM by PAMPA-BBB assay in presence of mixture of porcine brain lipids dodecane; assay type: ADME; settings: pig
[2] = Intrinsic clearance in male mouse liver microsomes at 1 uM by UPLC/TOF-MS analysis; assay type: ADME; settings: read-out: CLH
[3] = Metabolic stability in mouse plasma assessed as compound remaining measured at 10 uM after 3 hrs by LC-MS/MS analysis; assay type: ADME, cell-free; settings: read-out: Stability
MDR1 = assay: Apparent permeability from apical to basolateral side in MDCK cells expressing human MDR1 at 10 uM after 120 mins by UPLC/TOF-MS analysis; assay type: ADME, cell-based, Canis lupus familiaris; settings: dog, read-out: permeability
[4] = Cmax in CD1 mouse at 5 mg/kg, po; assay type: ADME, organism-based; set-up: dose 5 mg/kg, route oral; settings: in vivo
[5] = Half life in CD1 mouse at 5 mg/kg, po; assay type: ADME, organism-based; set-up: dose 5 mg/kg, route oral; settings: in vivo
Mus musculus [6] = assay: Volume of distribution at steady state in CD1 mouse at 5 mg/kg, po; assay type: ADME, organism-based; set-up: dose 5 mg/kg, route oral; settings: in vivo
Mus musculus [7] = assay: AUC (0 to infinity) in CD1 mouse at 5 mg/kg, po; assay type: ADME, organism-based, Plasma; set-up: time infinity, dose 5 mg/kg, route oral; settings: in vivo
[8] = Oral bioavailability in CD1 mouse at 5 mg/kg; assay type: ADME, organism-based; settings: in vivo
[9] = Ratio of drug level in brain to plasma in CD1 mouse at 5 mg/kg, po; assay type: ADME, organism-based; set-up: dose 5 mg/kg, route oral; settings: read-out: BPR
[10] = Toxicity in human NCI-N87 cells xenografted po dosed SCID mouse qd for 14 days; assay type: organism-based; settings: in vivo
[11] = Cmax in SCID mouse at 100 mg/kg, po qd for 14 days; assay type: ADME, organism-based; set-up: dose 100 mg/kg, route oral; settings: in vivo
[12] = Cmax in SCID mouse at 100 mg/kg, po qd for 1 to 7 days and 14 to 21 days; assay type: ADME, organism-based; set-up: dose 100 mg/kg, route oral; settings: in vivo
[13] = Cmax in SCID mouse at 300 mg/kg, po qd for 1 to 3 days; assay type: ADME, organism-based; set-up: dose 300 mg/kg, route oral; settings: in vivo
[14] = AUC in SCID mouse at 100 mg/kg, po qd for 14 days; assay type: ADME, organism-based; set-up: dose 100 mg/kg, route oral; settings: plasma
[15] = AUC in SCID mouse at 100 mg/kg, po qd for 1 to 7 days and 14 to 21 days; assay type: ADME, organism-based; set-up: dose 100 mg/kg, route oral; settings: plasma
[16] = AUC in SCID mouse at 300 mg/kg, po qd for 1 to 3 days; assay type: ADME, organism-based; set-up: dose 300 mg/kg, route oral; settings: plasma
[17] = Tmax in SCID mouse at 100 mg/kg, po qd for 14 days; assay type: ADME, organism-based; set-up: dose 100 mg/kg, route oral; settings: in vivo
[18] = Tmax in SCID mouse at 100 mg/kg, po qd for 1 to 7 days and 14 to 21 days; assay type: ADME, organism-based; set-up: dose 100 mg/kg, route oral; settings: in vivo
[19] = Tmax in SCID mouse at 300 mg/kg, po qd for 1 to 3 days; assay type: ADME, organism-based; set-up: dose 300 mg/kg, route oral; settings: in vivo
[20] = Half life in SCID mouse at 100 mg/kg, po qd for 14 days; assay type: ADME, organism-based; set-up: dose 100 mg/kg, route oral; settings: in vivo
[21] = Half life in SCID mouse at 100 mg/kg, po qd for 1 to 7 days and 14 to 21 days; assay type: ADME, organism-based; set-up: dose 100 mg/kg, route oral; settings: in vivo
[22] = Half life in SCID mouse at 300 mg/kg, po qd for 1 to 3 days; assay type: ADME, organism-based; set-up: dose 300 mg/kg, route oral; settings: in vivo

SMILES: COCC(=O)N1CCN(C(=O)[C@H]2CC[C@H](Cn3c(=O)[nH]c4ccccc4c3=O)CC2)CC1
permeability [1]: permeable

SMILES: CC(C)C(=O)N1CCN(C(=O)[C@H]2CC[C@H](Cn3c(=O)[nH]c4cc(Cl)ccc4c3=O)CC2)CC1
permeability [1]: permeable

SMILES: Cc1ccc2[nH]c(=O)n(C[C@H]3CC[C@H](C(=O)N4CCN(C(=O)C(C)C)CC4)CC3)c(=O)c2c1
permeability [1]: permeable

SMILES: CC(C)C(=O)N1CCN(C(=O)[C@H]2CC[C@H](Cn3c(=O)[nH]c4cccc(F)c4c3=O)CC2)CC1
permeability [1]: permeable

SMILES: COc1ccc2[nH]c(=O)n(C[C@H]3CC[C@H](C(=O)N4CCN(C(C)=O)CC4)CC3)c(=O)c2c1
permeability [1]: permeable
microsomal CLint at 1 µM [2]: 41.2 µL/min/mg
remaining at 3 h, 10 µM [3]: 100%

SMILES: CC(C)C(=O)N1CCN(C(=O)[C@H]2CC[C@H](Cn3c(=O)[nH]c4cccc(Cl)c4c3=O)CC2)CC1
permeability [1]: permeable

SMILES: O=C(C1CCC1)N1CCN(C(=O)[C@H]2CC[C@H](Cn3c(=O)[nH]c4ccccc4c3=O)CC2)CC1
permeability [1]: permeable

SMILES: COCC(=O)N1CCN(C(=O)[C@H]2CC[C@H](Cn3c(=O)[nH]c4ccc(OC)cc4c3=O)CC2)CC1
permeability [1]: permeable
microsomal CLint at 1 µM [2]: 14.5 µL/min/mg
remaining at 3 h, 10 µM [3]: 74%

SMILES: COc1ccc2c(c1)c(=O)n(C[C@H]1CC[C@H](C(=O)N3CCN(C(C)=O)CC3)CC1)c(=O)n2C
permeability [1]: permeable
microsomal CLint at 1 µM [2]: 33.3 µL/min/mg
remaining at 3 h, 10 µM [3]: 100%

SMILES: COc1ccc2c(c1)c(=O)n(C[C@H]1CC[C@H](C(=O)N3CCN(C(=O)C4CC4)CC3)CC1)c(=O)n2C
permeability [1]: permeable
microsomal CLint at 1 µM [2]: 139 µL/min/mg
remaining at 3 h, 10 µM [3]: 98%

SMILES: COc1ccc2[nH]c(=O)n(C[C@H]3CC[C@H](C(=O)N4CCN(C(=O)C5CC5)CC4)CC3)c(=O)c2c1
permeability [1]: permeable
microsomal CLint at 1 µM [2]: 65.6 µL/min/mg
remaining at 3 h, 10 µM [3]: 78%

SMILES: COc1ccc2[nH]c(=O)n(C[C@H]3CC[C@H](C(=O)N4CCN(C(=O)C(C)C)CC4)CC3)c(=O)c2c1
permeability [1]: permeable

SMILES: COCC(=O)N1CCN(C(=O)[C@H]2CC[C@H](Cn3c(=O)c4cc(OC)ccc4n(C)c3=O)CC2)CC1
permeability [1]: permeable
microsomal CLint at 1 µM [2]: 23 µL/min/mg
remaining at 3 h, 10 µM [3]: 95%
Papp A→B at 2 h, 10 µM (MDR1): 1.3 ×10⁻⁶ cm/s
Cmax [4]: 1.3 µM
half-life [5]: 2.2 h
Vdss (Mus musculus [6]): 0.83 L/kg
AUC (Mus musculus [7]): 4.9 µM·h
bioavailability [8]: 42%
Kp [9]: 0.03
MTD at 336 h [10]: 250 mg/kg
Cmax [11]: 27 µM
Cmax [12]: 22 µM
Cmax [13]: 35 µM
AUC at 336 h [14]: 113 µM·h
AUC [15]: 101 µM·h
AUC [16]: 193 µM·h
Tmax [17]: 0.5 h
Tmax [18]: 0.5 h
Tmax [19]: 1 h
half-life [20]: 2.2 h
half-life [21]: 1.6 h
half-life [22]: 5.4 h

SMILES: Cc1cccc2c(=O)n(C[C@H]3CC[C@H](C(=O)N4CCN(C(=O)C(C)C)CC4)CC3)c(=O)[nH]c12
permeability [1]: permeable

SMILES: COc1cccc2[nH]c(=O)n(C[C@H]3CC[C@H](C(=O)N4CCN(C(=O)C(C)C)CC4)CC3)c(=O)c12
permeability [1]: permeable

The next lines start with the values.

permeability [1]: permeable
SMILES: O=C(c1ccno1)N1CCN(C(=O)[C@H]2CC[C@H](Cn3c(=O)[nH]c4ccccc4c3=O)CC2)CC1

permeability [1]: permeable
SMILES: O=c1[nH]c2ccccc2c(=O)n1C[C@H]1CC[C@H](C(=O)N2CCN(c3ncccn3)CC2)CC1

permeability [1]: permeable
SMILES: O=c1[nH]c2ccccc2c(=O)n1C[C@H]1CC[C@H](C(=O)N2CCN(CC3CC3)CC2)CC1

permeability [1]: permeable
SMILES: CC(=O)N1CCN(C(=O)[C@H]2CC[C@H](Cn3c(=O)[nH]c4ccccc4c3=O)CC2)CC1

permeability [1]: permeable
SMILES: O=C(C1CC1)N1CCN(C(=O)[C@H]2CC[C@H](Cn3c(=O)[nH]c4ccccc4c3=O)CC2)CC1

permeability [1]: impermeable
SMILES: COc1ccccc1N1CCN(C(=O)[C@H]2CC[C@H](Cn3c(=O)[nH]c4ccccc4c3=O)CC2)CC1

permeability [1]: permeable
SMILES: O=c1[nH]c2ccccc2c(=O)n1C[C@H]1CC[C@H](C(=O)N2CCN(c3cnccn3)CC2)CC1

permeability [1]: impermeable
SMILES: O=c1[nH]c2ccccc2c(=O)n1C[C@H]1CC[C@H](C(=O)N2CCN(Cc3ccccc3)CC2)CC1

permeability [1]: permeable
SMILES: CC(C)CN1CCN(C(=O)[C@H]2CC[C@H](Cn3c(=O)[nH]c4ccccc4c3=O)CC2)CC1

permeability [1]: permeable
SMILES: CC(C)C(=O)N1CCN(C(=O)[C@H]2CC[C@H](Cn3c(=O)[nH]c4ccccc4c3=O)CC2)CC1
